{
  "source": "patent US8293280B2",
  "about": "“Method for treatment of HIV infection” (priority 2004, dated 2012)",
  "tested_on": "SIVmac239",
  "type": "in vivo, rhesus macaques (Macaca mulatta)",
  "data": [
    {"smiles": "C[C@H](Cn1cnc2c(N)ncnc21)OCP(=O)(O)O", "note": "[PMPA, 9-R-(2-phophorylmethoxypropyl) adenine]", "values": [
      {"measurement": "viral loads after termination of PMPA therapy", "setting": "Group 2: no further treatment, Group 3: extract 3.3 NU/kg s.c. daily for 60 days, initiated 2 days prior to termination of PMPA", "value": "viral loads rebounded soon after the discontinuation of PMPA therapy"},
      {"measurement": "plasma viral loads", "setting": "by day 28 of PMPA therapy, 30 mg/kg s.c. daily for 28 days, Groups 2 and 3", "value": "100 to 1000", "unit": "viral copies per mL"}
    ]}
  ]
}
